Source: PubChem BioAssay (NCI)
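Grown in 96-well plates, cells were treated for 48 hours with each compound at five concentrations. Insufficient inhibition: endpoint recorded as highest concentration tested. Abbreviation: GI50, concentration required for 50% inhibition of growth. The concentration for full growth arrest is given as TGI.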

Legend:
Assay in all cases: growth of human tumour cells (NCI), 48 h
K-562 leukemia = system: K-562 leukemia
DLD-1 colon = system: DLD-1 colon
UACC-62 melanoma = system: UACC-62 melanoma
SNB-75 CNS = system: SNB-75 CNS
LXFL 529 NSCLC = system: LXFL 529 NSCLC
CCRF-CEM leukemia = system: CCRF-CEM leukemia
KM20L2 colon = system: KM20L2 colon
M19-MEL melanoma = system: M19-MEL melanoma
COLO 205 colon = system: COLO 205 colon
OVCAR-5 ovarian = system: OVCAR-5 ovarian
HCT-15 colon = system: HCT-15 colon
SR leukemia = system: SR leukemia

SMILES | TGI (K-562 leukemia) [µM] | TGI (DLD-1 colon) [µM] | TGI (UACC-62 melanoma) [µM] | TGI (SNB-75 CNS) [µM] | TGI (LXFL 529 NSCLC) [µM] | TGI (CCRF-CEM leukemia) [µM] | TGI (KM20L2 colon) [µM] | TGI (M19-MEL melanoma) [µM] | TGI (COLO 205 colon) [µM] | TGI (OVCAR-5 ovarian) [µM] | TGI (HCT-15 colon) [µM] | TGI (SR leukemia) [µM] | GI50 (K-562 leukemia) [µM] | GI50 (UACC-62 melanoma) [µM] | GI50 (SNB-75 CNS) [µM] | GI50 (SR leukemia) [µM] | GI50 (OVCAR-5 ovarian) [µM] | GI50 (CCRF-CEM leukemia) [µM] | GI50 (HCT-15 colon) [µM] | GI50 (COLO 205 colon) [µM]
O=C(CC(=O)Nc1ccc(Cl)cc1)NNCC(=O)Nc1nc(-c2ccccc2)cs1 | > 100 | > 100 | > 100 | > 100 | > 100 | > 100 | > 100 | > 100 | > 100 | – | – | – | – | – | – | – | – | – | – | –
COC(=O)c1nc(-c2ccc(Cl)c(Cl)c2)nc2ccccc12 | > 100 | > 100 | > 100 | 11.3 | > 100 | > 100 | > 100 | > 100 | – | > 100 | > 100 | – | – | – | – | – | – | – | – | –
COc1ccc2[nH]c3c(cnn4cnnc34)c2c1 | > 100 | > 100 | > 100 | > 100 | > 100 | > 100 | > 100 | > 100 | > 100 | > 100 | > 100 | – | – | – | – | – | – | – | – | –
COc1ncnc2c(NC3OC(CO)C(O)C3O)ncnc12 (stereo not given) | – | 33.7 | 6.66 | 6.38 | 83.4 | 1.57 | > 100 | – | 7.54 | > 35.6 | > 100 | 0.276 | – | – | – | – | – | – | – | –
Cc1cccc(C(C)(C)C)c1NC(=O)CC1C(=O)Nc2ccccc2S1=O (stereo not given) | > 100 | > 100 | – | > 100 | > 100 | – | > 100 | – | 40.9 | > 100 | > 100 | 87.8 | – | – | – | – | – | – | – | –
COc1ccc(NC2=C(Sc3nc(C)cc(C)n3)C(=O)N(Cc3ccccc3)C2=O)cc1Cl | > 160 | – | > 160 | > 160 | – | > 160 | – | – | > 160 | > 160 | > 160 | > 160 | > 160 | 22.5 | 40.8 | 37.5 | > 160 | 13.9 | > 160 | > 160
CN(C)c1cccc2[nH]c(-c3[nH]ncc3Nc3ccnc(N)n3)nc12 | 1.52 | – | 0.0701 | 0.0302 | – | 4.48 | – | – | 0.0837 | 1.9 | 1.03 | 5.47 | 0.0167 | 0.0136 | < 0.0108 | < 0.01 | 0.023 | < 0.0118 | 0.0144 | < 0.01
[N-]=[N+]=Nc1ncc(-c2ccc(C(F)(F)F)cc2)c(NC2CCCCCC2)n1 | > 10 | – | > 10 | > 10 | – | > 10 | – | – | > 10 | > 10 | > 10 | > 10 | > 10 | > 10 | > 10 | > 10 | > 10 | > 10 | > 10 | > 10
Cc1cccc2c3c(sc12)C(c1ccc(Cl)cc1)C(C#N)=C(/N=C/c1ccc(Cl)cc1)O3 (stereo not given) | > 46.5 | – | 12.7 | 0.748 | – | > 63.7 | – | – | – | > 100 | > 100 | > 34.9 | 0.281 | 0.337 | 0.186 | 0.36 | 0.558 | 0.381 | 0.392 | 0.456
CC1C(=O)N=C2C(=CN(Cc3ccccc3)c3ccccc32)C(=O)N1C (stereo not given) | > 100 | – | > 100 | > 100 | – | > 100 | – | – | > 100 | > 100 | > 100 | > 100 | – | – | – | – | – | – | – | –
CC(C)(C)Cn1c(N)nc2ccc(-c3[nH]c(C(C)(C)C)nc3-c3ccc(F)cc3)nc21 | > 72.8 | – | 23.2 | 16.8 | – | > 63 | – | – | 21.7 | 29.3 | 30.4 | 47.9 | 3.73 | 10.1 | 2.3 | 10.5 | 13.7 | 12.6 | 4.9 | 7.76
O=C(Nc1ccccc1Cl)c1cnc2ccc(C3CCNCC3)cn12 | > 100 | – | 56.7 | 5.02 | – | > 100 | – | – | 25 | > 100 | > 100 | > 100 | 8.23 | 14.2 | 0.15 | 37.2 | 1.9 | > 100 | 11 | 2.85
CCN(CC)c1ccc(/C=N/NC(=O)c2ccc(Nc3ccnc(C(F)(F)F)c3)cc2)c(O)c1 | 3.47 | – | 0.898 | 3.41 | – | 0.771 | – | – | 1.09 | 4.75 | 2.55 | 0.672 | 0.147 | 0.229 | 0.152 | 0.0862 | 0.38 | 0.0532 | 0.0666 | 0.281
CCCCCC(=O)N1c2ccccc2NC2=C(C(=O)CC(c3ccc(OC)c(OC)c3)C2)C1c1ccc(C(F)(F)F)cc1 (stereo not given) | > 100 | – | > 100 | > 100 | – | > 100 | – | – | > 100 | > 100 | > 100 | > 100 | > 100 | 97.1 | 15.3 | > 100 | > 100 | > 100 | > 100 | > 100
COc1ccc(C2CC(=O)Nc3c2c(C)nn3-c2nc3ccccc3[nH]2)cc1 (stereo not given) | > 35.5 | – | 4.16 | 9.12 | – | > 27.9 | – | – | 14.7 | > 70.1 | > 100 | > 25.1 | 2.9 | 1.94 | 2.36 | 2.96 | 4.52 | 2.11 | 3.49 | 3.59
O=C(O)CC(Cc1ccc2c(c1)OCO2)C(=O)O (stereo not given) | > 100 | – | > 100 | > 100 | – | > 100 | – | – | > 100 | > 100 | > 100 | > 100 | – | – | – | – | – | – | – | –
N#C/C(=C\c1cn(-c2ccccc2)c2ccccc12)C(=O)O | > 100 | – | 85.6 | > 100 | – | > 100 | – | – | > 100 | > 100 | > 100 | > 100 | 71.7 | 23.8 | 31.4 | 68.8 | 95.5 | 99 | 30.7 | 85.9
Cc1ccc(NC(=O)c2ccnc(C(F)(F)F)c2)cc1-c1cc(OCCO)nc(N2CCOCC2)c1 | 41.6 | – | 4.54 | 7.29 | – | > 100 | – | – | 11.8 | 28.3 | 19.4 | > 100 | 1.86 | 0.315 | 1.46 | 0.613 | 1.09 | 3.33 | 2.24 | 0.445
O=C(O)C(/C=C/c1ccco1)=N\Nc1nc(-c2ccc(Cl)cc2)cs1 | > 50 | – | 17.7 | > 50 | – | > 50 | – | – | 45.8 | > 50 | > 50 | > 50 | 13.5 | 7.79 | 23.1 | 4.83 | 46.4 | 3.26 | 9.27 | 12.5
CCOC(=O)c1cc2c(cc1Cl)SC(N(c1ccc(F)cc1)S(=O)(=O)c1ccc(OC)cc1)=NS2(=O)=O | 31.1 | – | 30.5 | 47.4 | – | 54.2 | – | – | 27.6 | 71 | 27.9 | 37.9 | 14.2 | 14.6 | 18.3 | 16.8 | 32.4 | 1.31 | 14.8 | 12.5
COc1ccc(C2=NNC(c3ccc(-c4ccc(OC)cc4[N+](=O)[O-])o3)C2)cc1 (stereo not given) | > 100 | – | 19.4 | 84.3 | – | > 100 | – | – | > 100 | > 100 | > 100 | > 100 | 36.4 | 0.691 | 21.2 | 20.2 | > 100 | 70 | 31 | > 100
S=C(Nc1ccccc1)c1ccccn1 | > 100 | – | > 100 | > 100 | – | 40.4 | – | – | > 100 | > 100 | > 100 | > 100 | 48.4 | 70.7 | 54.5 | 25.5 | > 100 | 3.97 | 40.3 | 9.34
CC(=O)OCC(=O)[C@@]1(O)[C@H](C)C[C@H]2[C@@H]3C=C(C)C4=Cc5c(cnn5-c5ccc(F)cc5)C[C@]4(C)[C@H]3[C@@H](O)C[C@@]21C | > 23.2 | – | 3.78 | 4.14 | – | – | – | – | 3.34 | 4.57 | 3.63 | 7.93 | 1.15 | 1.73 | 1.19 | 2.35 | 1.41 | < 0.0158 | 1.45 | 1.74
COC(=O)c1c2c(c(C)[n+]([O-])c1C)C(=O)C=C(NCc1ccc(Cl)cc1)C2=O | 5.25 | – | 1.02 | 3.03 | – | 4.2 | – | – | 0.963 | 2.78 | 1.74 | 7.91 | 0.0478 | 0.046 | 1.65 | 0.733 | 1.29 | 0.471 | 0.183 | 0.278
